Our source for the ED50 values is patent publication US5463077A, “Perhydroisoindole derivatives and preparation” (Rhone-Poulenc Rorer S.A., priority 1992, dated 1995).

Common to all, as to type: in vivo
Assay [1] has as its system hypotension induced by substance P. Nature of the assay: Antagonism of hypotension induced by substance P (Maggi et al.). Conditions: Cavia porcellus, iv; guinea-pig; hypotension induced by i.v. injection of 250 ng/kg of substance P; read-out: ED50, dose which reduces by 50% the hypotension. Here is the method:
Injection of substance P into the animal causes hypotension. The products studied by the technique of C. A. Maggi et al., J. Auton. Pharmac., 7, 11-32 (1987) show an antagonistic effect with respect to this hypotension in the guinea-pig. The ED50, the dose which reduces by 50% the hypotension induced by an i.v. injection of 250 ng/kg of substance P, is determined.

The subject of assay [2] is increase in capillary permeability caused by septide (agonist of substance P). Kind of assay: Inhibition of the increase in capillary permeability caused by septide (Saria et al., adapted for the guinea-pig). Conditions: Cavia porcellus. The source says:
Study of certain isoindole derivatives of the general formula (IV) by the technique of A. Saria et al., Arch.

The subject of assay [3] is bronchospasm induced by [Pro^9 ] substance P. Kind of assay: Inhibition of bronchospasm induced by [Pro9] substance P (Konzett and Rossler). Conditions: Cavia porcellus, iv; guinea-pig; bronchospasm induced by 3 μg/kg i.v. of [Pro9] substance P; read-out: ED50, dose which reduces by 50% the bronchospasm. The source says:
Injection of substance P causes a bronchospasm in the animal. The bronchoconstriction induced in vivo in the guinea-pig by injection of substance P or of a selective agonist of substance P: [Pro^9 ] substance P is studied by the technique of H. Konzett and R. Rosseler, Archiv. Exp. Path. Pharmak., 195, 71-74 (1940). This bronchoconstriction is inhibited by injection of a product of the general formula (IV), which is evidence of an antiasthmatic activity. The ED50, the dose which reduces by 50 % the bronospasm induced by 3 μg/kg i.v. of [Pro^9 ] substance P, is determined. In this technique, the ED50 of the product of Use Example 1 is 0.7 mg/kg i.v.

`COc1ccccc1[C@H](C)C(=O)N1C[C@@H]2[C@H](C1)C(c1ccccc1)(c1ccccc1)CC[C@@]2(O)c1ccccc1OC` [Use Example 1, (3aS,4S,7aS)-7,7-diphenyl-4-(2-methoxyphenyl)-2-[2-(2-methoxyphenyl)-(S)-propionyl]-perhydroisoindol-4-ol]: the 50% effective dose (ED50) worked out at 0.15 mg/kg in assay [1], 0.04 mg/kg in assay [2] (iv), 3.5 mg/kg in assay [2] (po) and 0.7 mg/kg in assay [3].

Broadly, the ED50 is the dose that gives a 50% effect, or the effect in half of the subjects.
